Measurements published in patent US10793589B2, “Resorcinarene-based amphipathic compound and use thereof” (Industry-University Cooperation Foundation Hanyang …, priority 2016, dated 2020).

Tests used:
[1] = Critical micelle concentration by fluorescence dye diphenylhexatriene (DPH); format: physicochemical; details: DPH fluorescence
Protocol: A method of measuring the CMC is not particularly limited and may be any method generally known in the art. For example, the CMC may be measured according to a fluorescence staining method using diphenylhexatriene (DPH).
(§1) Specifically, critical micelle concentrations (CMCs) were measured using a fluorescence dye, diphenylhexatriene (DPH), and hydrodynamic radii (Rh) of micelles formed of each compound (1.0 wt %) were measured by a dynamic light scattering (DLS) experiment. Measured results are shown in Table 1 in comparison with values of DDM as an existing amphipathic molecule (detergent).

[2] = Hydrodynamic radius and size distribution of micelles by dynamic light scattering (DLS); format: physicochemical; details: compound 1.0 wt %
Protocol: A method of measuring the radius of a micelle is not particularly limited and may be any method generally known in the art. For example, the radius may be measured by a dynamic light scattering (DLS) experiment.
as §1
Meanwhile, size distributions of the micelles formed by RGAs and RMAs were measured using DLS.

[3] = biological target: T1, human β2 adrenergic receptor (β2AR) (Homo sapiens, UniProt P07550); experiment: β2AR stability, [3H]-dihydroalprenolol (DHA) ligand binding assay; format: biochemical; details: for maintaining the ligand binding characteristic of the receptor compared to DDM: 0 hour, CMC+0.2 wt %, [3H]-DHA
T1 construct: made in house
T1 sequence (P07550 whole entry): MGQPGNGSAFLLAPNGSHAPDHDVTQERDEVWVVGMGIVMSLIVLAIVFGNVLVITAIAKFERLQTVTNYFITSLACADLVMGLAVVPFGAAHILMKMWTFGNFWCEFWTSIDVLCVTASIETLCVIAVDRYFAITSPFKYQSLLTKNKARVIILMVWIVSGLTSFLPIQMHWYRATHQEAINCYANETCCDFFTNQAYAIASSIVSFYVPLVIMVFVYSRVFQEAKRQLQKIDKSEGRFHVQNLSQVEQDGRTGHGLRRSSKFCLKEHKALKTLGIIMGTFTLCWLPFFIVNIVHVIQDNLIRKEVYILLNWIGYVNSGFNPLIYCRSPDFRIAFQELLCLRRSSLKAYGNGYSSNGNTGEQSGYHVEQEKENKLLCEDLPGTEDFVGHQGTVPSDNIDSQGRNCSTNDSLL
Protocol: FIGS. 10A and 10B illustrate a result of measuring the effect of RGAs on the stability of β2AR after (a) 0 hour and (b) over time. Protein-ligand binding characteristics were measured via ligand binding assay using [^3H]-dihydroalprenolol (DHA), and the measurement was carried out by sampling a protein sample at regular intervals during 2 days of storage at room temperature.
FIGS. 12A and 12B illustrate a result of measuring the effect of RMAs on the stability of β2AR after (a) 0 hour and (b) over time. Protein-ligand binding characteristics were measured via ligand binding assay using [^3H]-dihydroalprenolol (DHA), and the measurement was carried out by sampling a protein sample at regular intervals during 2 days of storage at room temperature.
An experiment was carried out to measure the structural stability of a human (32 adrenergic receptor (β2AR) and a G protein-coupled receptor (GPCR) caused by RGAs and RMAs. That is, a receptor purified with DDM was diluted with a buffer solution containing only each RGA and RMA without cholesteryl hemisuccinate (CHS) or a buffer solution containing CHS and DDM. The final concentration of the compound was CMC+0.2 wt %, and the ligand binding characteristic of the receptor was measured using [^3H]-dihydroalprenolol ([^3H]-DHA) binding.
Specifically, radioligand binding assay was carried out using the following method. β2AR was purified using 0.1% DDM according to the method described in a paper (Science, 2007, 318, 1266-1273.) written by D. M. Rosenbaum et al. and finally concentrated to about 10 mg/ml (about 200 μM). The β2AR purified with DDM was used to prepare a master binding mixture containing 10 nM [^3H]-dihydroalprenolol (DHA) supplemented with 0.5 mg/ml BSA in a 0.2% amphipathic compound (DDM, RGAs or RMAs). The receptor purified with DDM, RGAs or RMAs was incubated with 10 nM [^3H]-DHA at room temperature for 30 minutes. The mixture was loaded into a G-50 column, the flow-through was collected with 1 ml of a binding buffer (20 mM HEPES pH 7.5, 100 mM NaCl, supplemented with 0.5 mg/ml BSA and 20×CMC individual amphipathic compound, and the G-50 column was further filled with 15 ml of a scintillation fluid. Receptor-bound [^3H]-DHA was measured with a scintillation counter (Beckman). The binding capacity of [^3H]-DHA was measured and shown in a column graph. Each experiment was performed in triplicate.

[4] = test system: leucine transporter (LeuT); experiment: LeuT structural stability, [3H]-Leu binding by scintillation proximity assay (SPA); format: biochemical, Aquifex aeolicus
Protocol: FIGS. 7A and 7B are a set of graphs illustrating a result of measuring the structural stability of a leucine transporter (LeuT) solubilized in RGAs or DDM evaluated at CMC+0.04 wt % (a) or CMC+0.2 wt % (b). Protein stability was determined by measuring the ability of the transporter to bind a radiolabeled ligand ([3H]-Leu) via scintillation proximity assay (SPA). The substrate binding ability of LeuT was measured at regular intervals during 10 days of incubation of the protein at room temperature in the presence of individual amphipathic compounds.
FIGS. 8A and 8B are a set of graphs illustrating a result of measuring the structural stability of a leucine transporter (LeuT) solubilized in RMAs or DDM evaluated at CMC+0.04 wt % (a) or CMC+0.2 wt % (b). Protein stability was determined by measuring the ability of the transporter to bind a radiolabeled ligand ([3H]-Leu) via scintillation proximity assay (SPA). The substrate binding ability of LeuT was measured at regular intervals during 10 days of incubation of the protein at room temperature in the presence of individual amphipathic compounds.
An experiment was carried out to measure the structural stability of a leucine transporter (LeuT) caused by RGAs and RMAs. The concentrations of individual amphipathic compounds were (a) CMC+0.04 wt % or (b) CMC+0.2 wt %, and the substrate binding characteristic of LeuT was measured by scintillation proximity assay (SPA) using [^3H]-Leu. […]
Specifically, wild type LeuT derived from Aquifex aeolicus which is a thermophilic bacterium was purified according to the method described in the paper (Nature 1998, 392, 353-358) written by G. Deckert et al. LeuT was expressed in E. coli C41 (DE3) transformed with pET16b encoding a C-terminal 8×His-tagged transporter (an expression plasmid was provided by Dr. E. Gouaux (Vollum Institute, Portland, Oreg., USA)). […] The protein samples were stored at room temperature for 10 days and centrifuged at designated time points, and protein characteristics were determined by measuring the binding capacity of [^3H]-Leucine using SPA. […]

SMILES: CCCCCCCCCCC[C@H]1c2cc(c(OCCO[C@@H]3OC(CO)[C@@H](O)[C@H](O)C3O)cc2OCCO[C@@H]2OC(CO)[C@@H](O)[C@H](O)C2O)[C@H](CCCCCCCCCCC)c2cc(c(OCCO[C@@H]3OC(CO)[C@@H](O)[C@H](O)C3O)cc2OCCO[C@@H]2OC(CO)[C@@H](O)[C@H](O)C2O)[C@@H](CCCCCCCCCCC)c2cc(c(OCCO[C@@H]3OC(CO)[C@@H](O)[C@H](O)C3O)cc2OCCO[C@@H]2OC(CO)[C@@H](O)[C@H](O)C2O)[C@@H](CCCCCCCCCCC)c2cc1c(OCCO[C@@H]1OC(CO)[C@@H](O)[C@H](O)C1O)cc2OCCO[C@@H]1OC(CO)[C@@H](O)[C@H](O)C1O (some centres unmarked) [RGA-C12]
- CMC [1]: ~2.5 µM
- CMC (wt %) [1]: ~0.0069 wt %
- Rh (nm), hydrodynamic radius of micelles [2]: 3.0 ± 0.2 nm
- maintaining the ligand binding characteristic of the receptor compared to DDM [3]: superior to DDM
- ability to maintain the ligand binding of the receptor over time compared to DDM ([3]; 2 days at room temperature, early stage (0 to 12 h)): inferior ability to maintain the ligand binding of the receptor compared to DDM

SMILES: CCCCCCCCC[C@H]1c2cc(c(OCCO[C@@H]3OC(CO)[C@@H](O)[C@H](O)C3O)cc2OCCO[C@@H]2OC(CO)[C@@H](O)[C@H](O)C2O)[C@H](CCCCCCCCC)c2cc(c(OCCO[C@@H]3OC(CO)[C@@H](O)[C@H](O)C3O)cc2OCCO[C@@H]2OC(CO)[C@@H](O)[C@H](O)C2O)[C@@H](CCCCCCCCC)c2cc(c(OCCO[C@@H]3OC(CO)[C@@H](O)[C@H](O)C3O)cc2OCCO[C@@H]2OC(CO)[C@@H](O)[C@H](O)C2O)[C@@H](CCCCCCCCC)c2cc1c(OCCO[C@@H]1OC(CO)[C@@H](O)[C@H](O)C1O)cc2OCCO[C@@H]1OC(CO)[C@@H](O)[C@H](O)C1O (some centres unmarked) [RGA-C10]
- CMC [1]: ~5 µM
- CMC (wt %) [1]: ~0.013 wt %
- Rh (nm), hydrodynamic radius of micelles [2]: 3.5 ± 0.2 nm

SMILES: CCCCCCC[C@H]1c2cc(c(OCCO[C@@H]3OC(CO)[C@@H](O)[C@H](O)C3O)cc2OCCO[C@@H]2OC(CO)[C@@H](O)[C@H](O)C2O)[C@H](CCCCCCC)c2cc(c(OCCO[C@@H]3OC(CO)[C@@H](O)[C@H](O)C3O)cc2OCCO[C@@H]2OC(CO)[C@@H](O)[C@H](O)C2O)[C@@H](CCCCCCC)c2cc(c(OCCO[C@@H]3OC(CO)[C@@H](O)[C@H](O)C3O)cc2OCCO[C@@H]2OC(CO)[C@@H](O)[C@H](O)C2O)[C@@H](CCCCCCC)c2cc1c(OCCO[C@@H]1OC(CO)[C@@H](O)[C@H](O)C1O)cc2OCCO[C@@H]1OC(CO)[C@@H](O)[C@H](O)C1O (some centres unmarked) [RGA-C8]
- CMC [1]: ~10 µM
- CMC (wt %) [1]: ~0.025 wt %
- Rh (nm), hydrodynamic radius of micelles [2]: 2.8 ± 0.1 nm
- maintaining the ligand binding characteristic of the receptor compared to DDM [3]: inferior to DDM
- LeuT stabilization as concentration of compound increased ([4]; CMC+0.04 wt % versus CMC+0.2 wt %): enhanced effect as concentration increased
- effect of maintaining the substrate binding characteristic of LeuT ([4]; CMC+0.2 wt %, 10 days at room temperature): highest effect of maintaining the substrate binding characteristic of LeuT
